# Measured values: patent US8642012B2, “Methods of treatment using ammonia-scavenging drugs” (Hyperion Therapeutics, Inc., priority 2008, dated 2014)
# Entries after “also recorded” stand apart in the source; their conditions may differ.
# Experiments:
# [1] = Adult UCD patients switched from sodium PBA to equimolar HPN-100: plasma PK at steady state; format: in vivo, human
# Excerpt: (§1) Subjects stayed on the 100% HPN-100 dose for one week and were then re-admitted to the study unit for repeated PK (Visit 11-1), ammonia and urine collections.
# [2] = Adult UCD patients, sodium PBA vs HPN-100: safety and patient preference; format: in vivo, human; details: UCD patients (n=10)
# Excerpt: as §1
# [3] = Overall findings across the clinical studies (conversion to urinary PAGN, tolerability); format: in vivo, human
# Excerpt: These are followed by a biological explanation for the findings.
# [4] = Adult UCD patients, sodium PBA vs HPN-100: urinary PAGN excretion; format: in vivo, human; details: for PAGN excretion: equimolar rates (n=10)
# Excerpt: as §1
# [5] = HPN-100 in subjects with cirrhosis (Child-Pugh A, B, C) and healthy adults: plasma PK; format: in vivo, human
# Protocol: (§2) To determine its pharmacokinetic (PK) and pharmacodynamic (PD) profile in patients with liver disease, clinical testing was conducted in which HPN-100 was administered orally as a single dose (100 mg/kg/day on day 1), and twice daily for 7 consecutive days (200 mg/kg/day on days 8 through 14, in two doses of 100 mg/kg per dose), to subjects with hepatic impairment with cirrhosis (Child-Pugh scores of A, B, or C) and to a gender and age-matched control group of healthy adults with normal hepatic function. On day 15, subjects received a single dose of HPN-100 (100 mg/kg). PK blood samples were taken pre-dose, at 15 and 30 minutes post-dose, and at 1, 1.5, 2, 3, 4, 6, 8, 12, and 24 hours post-dose on days 1, 8, and 15, and at 48 hours after dosing on days 1 and 15. On days 9-14, blood samples were taken pre-morning dose and at 2 hours post-morning dose. Urine was collected 0-4, 4-8, 8-12, and 12-24 hours post-dose on days 1, 8, and 15, and at 24-48 hours post-dose on days 1 and 15.
# [6] = HPN-100 in subjects with cirrhosis and healthy adults: urinary PAGN excretion; format: in vivo, human; details: for Molar % of dose ammonia scavenged, Mean (SD): after dosing on day 15 (0-48 hours)
# Protocol: as §2
# [7] = system: venous ammonia; assay: Adult UCD patients, sodium PBA vs HPN-100: venous ammonia pharmacodynamics; format: in vivo, human; details: for Venous ammonia Cmaxss, Mean / Venous ammonia Cmaxss, Median / Venous ammonia TN-AUC, Mean / Venous ammonia TN-AUC, Median: N 10 UCD subjects; for Venous ammonia Cmaxss, Mean / Venous ammonia Cmaxss, Median / Venous ammonia TN-AUC, Mean / Venous ammonia TN-AUC, Median / Venous ammonia Cmaxss / Venous ammonia TN-AUC: seven days of dosing, steady state; for TN-AUC (NH3): plasma ammonia; for NH3: Total AUC / NH3 exposure: DAY (hours 6-12) / NH3 exposure: NIGHT (hours 12-24) / NH3 Cmax: equimolar rates (n=10); for NH3 Cmax: in µmol/L
# Excerpt: as §1
# [8] = ADME study of radio labeled sodium PBA or HPN-100 in cynomolgous monkeys; format: in vivo; details: 600 mg/kg single dose
# Excerpt: These monkeys were chosen because, like humans (and unlike most other species), they metabolize PAA to PAGN and thus provide a useful model for testing prodrugs of PAA.
# [9] = PK/PD modeling (NONMEM VI) of plasma and urinary metabolite data from the clinical studies; parameters: species or system human
# Excerpt: Since hepatocytes and possibly enterocytes contain the enzymes necessary for conversion of PBA to PAA and conversion of PAA to PAGN and since glutamine is present in the splanchnic as well as the systemic circulation, it is likely that PBA can be converted to PAGN prior to reaching the systemic circulation (i.e. “pre-systemically”) and that this PBA is fully effective with respect to ammonia scavenging (FIG. 6); i.e. fully active. To verify this possibility, PK/PD modeling using NONMEM VI (Icon, Ellicot City, Md.) was carried out on plasma and urinary metabolite data (over 5000 data points) from the clinical studies described above involving healthy adults, subjects with cirrhosis and UCD subjects.
# [10] = healthy adults; single dose; urine collected to 24 hours
# [11] = individual UCD patients; Brusilow 1991, Brusilow and Finkelstien 1993; cited from earlier work
# [12] = Single dose PK in healthy adults: plasma PBA, PAA, PAGN; format: in vivo, human; details: healthy volunteers, single dose 3 g/m^2/day PBA mole equivalent
# Protocol: To assess its pharmacokinetic (PK) and pharmacodynamic (PD) profile, HPN-100 was administered as a single dose to 24 healthy adults. Pharmacokinetic samples were taken pre-dose and at 15 and 30 minutes post-dose and 1, 1.5, 2, 3, 4, 6, 8, 12, 24, and 48 hours post-dose.
# Plasma levels of PAA, PBA, and PAGN were monitored periodically for 12-24 hours by known methods.
# [13] = UCD patients, equimolar dosages
# [14] = UCD patients, not statistically significant
# [15] = plasma, UCD subjects, multiple dose, PBA mole equivalent
# [16] = steady state, UCD patients N = 10, arithmetic mean
smiles,measurement,setting,value
"O=C(CCCc1ccccc1)OCC(COC(=O)CCCc1ccccc1)OC(=O)CCCc1ccccc1 [HPN-100, glyceryl tri-[4-phenylbutyrate]]",Intact HPN-100 in blood samples,"[1]; UCD patients, all blood samples",either not detectable or below the limits of quantitation
same,"Adverse effects, number of subjects reporting",[2],5
same,"Adverse effects, total number reported",[2],15
same,Indications of toxicity,[3]; at doses equimolar to the approved PBA dosage of 20 g/day,no indications of toxicity
same,Dietary protein whose waste nitrogen is eliminated per gram of drug per day,[3]; given 60-75% conversion rate,~1.3 grams
same,Effect on creatinine levels,"[3]; human, in vivo",little to no effect
same,Relationship between dose and PAGN output,[3]; up to doses of 17.4 mL,linear relationship
same,PAGN excretion,[4],Comparable
same,PK and PD in fed versus fasted state,[5]; after fasting (day 1) vs with a meal (day 8),no PK or PD differences; also recorded: indistinguishable
same,"Alternative metabolites PAG, PBG and PBGN in plasma","[5]; all plasma samples, all subject groups",below the limit of quantification
same,Effect of hepatic impairment on ammonia-scavenging ability,[6]; Child-Pugh groups vs healthy volunteers,no significant effect
same,"Molar % of dose ammonia scavenged, Mean (SD)",[6]; Child-Pugh A (8),159.2 (60.9) Molar %
same,"Molar % of dose ammonia scavenged, Mean (SD)",[6]; Child-Pugh B (8),116.3 (58.3) Molar %
same,"Molar % of dose ammonia scavenged, Mean (SD)",[6]; Child-Pugh C (8),169.9 (130.1) Molar %
same,"Molar % of dose ammonia scavenged, Mean (SD)",[6]; Healthy Adults (8),137.2 (43.9) Molar %
same,"Venous ammonia Cmaxss, Mean",[7],56.3 µmol/L
same,"Venous ammonia Cmaxss, Median",[7],60.0 µmol/L
same,"Venous ammonia TN-AUC, Mean",[7],26.1 µmol/L
same,"Venous ammonia TN-AUC, Median",[7],22.3 µmol/L
same,Venous ammonia Cmaxss,[7]; Subject 1001,63.0 µmol/L
same,Venous ammonia TN-AUC,[7]; Subject 1001,19.8 µmol/L
same,Venous ammonia Cmaxss,[7]; Subject 1002,31.0 µmol/L
same,Venous ammonia TN-AUC,[7]; Subject 1002,19.3 µmol/L
same,Venous ammonia Cmaxss,[7]; Subject 1004,106 µmol/L
same,Venous ammonia TN-AUC,[7]; Subject 1004,35.1 µmol/L
same,Venous ammonia Cmaxss,[7]; Subject 1006,13.0 µmol/L
same,Venous ammonia TN-AUC,[7]; Subject 1006,8.30 µmol/L
same,Venous ammonia Cmaxss,[7]; Subject 2001,33.0 µmol/L
same,Venous ammonia TN-AUC,[7]; Subject 2001,22.7 µmol/L
same,Venous ammonia Cmaxss,[7]; Subject 2003,74.0 µmol/L
same,Venous ammonia TN-AUC,[7]; Subject 2003,21.1 µmol/L
same,Venous ammonia Cmaxss,[7]; Subject 3002,36.0 µmol/L
same,Venous ammonia TN-AUC,[7]; Subject 3002,21.9 µmol/L
same,Venous ammonia Cmaxss,[7]; Subject 3004,75.0 µmol/L
same,Venous ammonia TN-AUC,[7]; Subject 3004,38.4 µmol/L
same,Venous ammonia Cmaxss,[7]; Subject 5001,57.0 µmol/L
same,Venous ammonia TN-AUC,[7]; Subject 5001,35.5 µmol/L
same,Venous ammonia Cmaxss,[7]; Subject 5002,75.2 µmol/L
same,Venous ammonia TN-AUC,[7]; Subject 5002,39.1 µmol/L
same,Mean percentage of normal ammonia values,[7]; UCD patients,83%
same,Peak venous ammonia concentration,[7]; UCD patients,56.3 µmol/L
same,Venous ammonia mean TN-AUC,[7]; UCD patients,26.1 µmol/L
same,Ammonia level reached in patients above about 40 μmol/L on sodium PBA,"[7]; UCD patients, equimolar dosages, FIG. 12",below 40 μmol/L
same,TN-AUC (NH3),[7]; [13],26.1 µM
same,NH3: Total AUC,[7]; UCD patients,26.1 ± 10.3
same,NH3 exposure: DAY (hours 6-12),[7]; UCD patients,32.9
same,NH3 exposure: NIGHT (hours 12-24),[7]; UCD patients,21.3
same,NH3 Cmax,[7]; UCD patients,56.3 ± 27.9
same,"Peak venous ammonia, lowering versus sodium PBA",[7]; [14],~29%
same,"Venous ammonia TN-AUC, lowering versus sodium PBA",[7]; [14],~31%
same,Intact HPN-100 in systemic circulation or in excretions,[8],essentially no HPN-100
"O=C([O-])CCCc1ccccc1.[Na+] [Sodium PBA, sodium phenylbutyrate]",Absorption rate constant,[9],1.34 h⁻¹
same,Fraction of PBA converted pre-systemically (to PAA and PAGN),[9],1%
same,AUC (PBA),[1]; [13],739 (49) μg-hr/mL
same,PBA AUC24,[1]; [15],739.0 µg·h/mL
same,PBA Cmax,[1]; [15],141.0 µg/mL
same,PBA Tmax,[1]; [15],2.1 h
same,PAA in plasma Cmaxss,[1]; [16],53.0 µg/mL
same,PAA in plasma Cminss,[1]; [16],3.56 µg/mL
same,PAGN in plasma Cmaxss,[1]; [16],83.3 µg/mL
same,PAGN in plasma Cminss,[1]; [16],16.8 µg/mL
same,PBA in plasma AUC0-24,[1]; [16],739 µg·h/mL
same,PBA in plasma Cmaxss,[1]; [16],141 µg/mL
same,PBA in plasma Cminss,[1]; [16],0.588 µg/mL
same,"Adverse effects, number of subjects reporting",[2],7
same,"Adverse effects, total number reported",[2],21
same,Serious adverse effects,[2],2 (symptomatic
same,Serious adverse effects,[2]; listed as PBA,two subjects
same,Urinary excretion of PAGN,[10],4905 ± 1414 mg
same,"Conversion into urinary PAGN, overall efficiency on average","[3]; oral, typical/average across clinical studies",60-75%
same,Urine collection interval with highest PAGN output,[4]; 24 hour pattern,6 to 12 h
same,Conversion into urinary PAGN,[4]; average,~60%
same,PAGN excretion,[4],Comparable
same,"Mean PAGN amount excreted, 0-6 hours",[4]; urine,"2,452,838 μg"
same,"Mean PAGN amount excreted, 0-12 hours",[4]; urine,"4,859,121 μg"
same,"Mean PAGN amount excreted, 12-24 hours",[4]; urine,"4,645,447 μg"
same,Fraction excreted in the urine as PAGN,[11],80-90%
same,"Venous ammonia Cmaxss, Mean",[7],79.1 µmol/L
same,"Venous ammonia Cmaxss, Median",[7],83.6 µmol/L
same,"Venous ammonia TN-AUC, Mean",[7],38.4 µmol/L
same,"Venous ammonia TN-AUC, Median",[7],36.8 µmol/L
same,Venous ammonia Cmaxss,[7]; Subject 1001,29.0 µmol/L
same,Venous ammonia TN-AUC,[7]; Subject 1001,16.47 µmol/L
same,Venous ammonia Cmaxss,[7]; Subject 1002,31.0 µmol/L
same,Venous ammonia TN-AUC,[7]; Subject 1002,20.9 µmol/L
same,Venous ammonia Cmaxss,[7]; Subject 1004,85.0 µmol/L
same,Venous ammonia TN-AUC,[7]; Subject 1004,46.8 µmol/L
same,Venous ammonia Cmaxss,[7]; Subject 1006,150 µmol/L
same,Venous ammonia TN-AUC,[7]; Subject 1006,71.5 µmol/L
same,Venous ammonia Cmaxss,[7]; Subject 2001,88.0 µmol/L
same,Venous ammonia TN-AUC,[7]; Subject 2001,52.1 µmol/L
same,Venous ammonia Cmaxss,[7]; Subject 2003,31.0 µmol/L
same,Venous ammonia TN-AUC,[7]; Subject 2003,17.5 µmol/L
same,Venous ammonia Cmaxss,[7]; Subject 3002,108 µmol/L
same,Venous ammonia TN-AUC,[7]; Subject 3002,22.3 µmol/L
same,Venous ammonia Cmaxss,[7]; Subject 3004,115 µmol/L
same,Venous ammonia TN-AUC,[7]; Subject 3004,62.9 µmol/L
same,Venous ammonia Cmaxss,[7]; Subject 5001,82.2 µmol/L
same,Venous ammonia TN-AUC,[7]; Subject 5001,35.8 µmol/L
same,Venous ammonia Cmaxss,[7]; Subject 5002,72.2 µmol/L
same,Venous ammonia TN-AUC,[7]; Subject 5002,37.7 µmol/L
same,Mean percentage of normal ammonia values,[7]; UCD patients,58%
same,Peak venous ammonia concentration,[7]; UCD patients,79.1 µmol/L
same,Venous ammonia mean TN-AUC,[7]; UCD patients,38.4 µmol/L
same,TN-AUC (NH3),[7]; [13],38.4 µM
same,NH3: Total AUC,[7]; UCD patients,38.4 ± 19.6
same,NH3 exposure: DAY (hours 6-12),[7]; UCD patients,37.1
same,NH3 exposure: NIGHT (hours 12-24),[7]; UCD patients,36.3
same,NH3 Cmax,[7]; UCD patients,79.1 ± 40.1
same,PBA AUC24,[12],542.6 µg·h/mL
same,PBA Cmax,[12],221.0 µg/mL
same,PBA Tmax,[12],54 min
same,PBA T½,[12],42 min
same,Unchanged PBA as share of the administered dosage,[8]; excreted,48%
same,PAGN as share of the administered radio labeled dose,[8]; urine,23%
